The results in this text go back to article PMC9293909 (Nature Communications, 2022).

“And” between values parts separate entries of the source, which are not always exact repeats. Identical values can stand only once. Like-named read-outs stand apart in the source and are kept apart here.

Experiment [1] deals with postsynaptic A1Rs, CA1 pyramidal cells. Briefly: Whole-cell patch-clamp, membrane potential of CA1 pyramidal cells. Type of experiment: cell-based, rat. On the procedure: Rats were kept on a 12-hour light-dark cycle with slices made 90 min after entering the light cycle. […] The brain was removed, cut down the midline and the two sides of the brain stuck down to a metal base plate using cyanoacrylate glue. […] Slices were stored at 34 °C for 1–6 h in aCSF (1 mM MgCl2, 2 mM CaCl2) before use.
A slice was transferred to the recording chamber and perfused at 3 ml min^−1 with aCSF at 32 ± 0.5 °C. Slices were visualised using IR-DIC optics with an Olympus BX151W microscope (Scientifica) and a CCD camera (Hitachi). […] Voltage and current recordings were obtained using an Axon Multiclamp 700B amplifier (Molecular Devices, USA) and digitised at 20 KHz. Data acquisition and analysis was performed using pClamp 10 (Molecular Devices, USA). For voltage-clamp experiments, CA1 pyramidal cells were held at −60 mV. Peptides to interfere with G protein signalling were introduced via the patch pipette into the recorded cell.

Experiment [2] concerns the target T1, hA1R:Goa (Homo sapiens, UniProt P30542).
T1 construct: host or cells: CHO-K1-hA1R (made in-house), PTX-treated
T1 sequence (P30542 1-326): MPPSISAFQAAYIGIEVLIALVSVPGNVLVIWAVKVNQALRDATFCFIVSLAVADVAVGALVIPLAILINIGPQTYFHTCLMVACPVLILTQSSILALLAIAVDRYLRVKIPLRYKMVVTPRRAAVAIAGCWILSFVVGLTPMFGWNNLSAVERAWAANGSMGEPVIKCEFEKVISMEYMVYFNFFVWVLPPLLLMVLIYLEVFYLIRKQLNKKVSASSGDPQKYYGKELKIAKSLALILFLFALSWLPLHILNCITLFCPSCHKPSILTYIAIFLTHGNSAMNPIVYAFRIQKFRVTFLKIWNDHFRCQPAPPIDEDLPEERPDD
Briefly: cAMP inhibition in PTX-treated CHO-K1-hA1R cells with PTX-insensitive Goa (incl. Schild analysis, bias). Conditions: for Emax: inhibition of forskolin-stimulated cAMP; for Bias factor (Δ(τ/KA)) Goa: relative to adenosine, operational model. Type of experiment: cell-based. On the procedure:
Cells were then incubated for 24 h before addition of 100 ng/ml PTX, to inhibit activity of endogenous Gαi/o, and then incubated for a further 16-18 h. Transfected cells were then assayed as per cAMP inhibition experiments, but co-stimulated with agonist and 100 nM forskolin.
Statistical significance was tested as indicated in the text using paired or unpaired two-tailed t-tests or one-way or two-way ANOVAs with repeated measures (RM) as appropriate. Bonferroni corrections for multiple comparisons were performed. All in vitro cell signalling assay data was analysed using Prism 8.4 (Graphpad software, San Diego, CA), with all concentration-response curves being fitted using a 3 parameter logistic equation to calculate response range and IC50. All cAMP data was normalised to a forskolin concentration-response curve ran in parallel to each assay.

For experiment [3], the target named is T2, rA2AR (Rattus norvegicus, UniProt P30543).
T2 construct: expressed in transfected cells
Briefly: cAMP accumulation in CHO-K1-rA2AR cells. It counts as cell-based.

In experiment [4] the target is T2, rA2AR. Kind of experiment: NanoBRET competition binding with CA200645. On the procedure: The data was fitted with the ‘one-site – Ki model’ derived from the Cheng and Prusoff equation, built into Prism to determine affinity (pKi) values for all unlabelled agonists at all AR subtypes assayed. […] Here data was fitted with the ‘two-site Ki model’, build into Prism to determine high affinity and low affinity values for the unlabelled agonists. […] BRET was measured following the addition of the Nluc substrate, Furimazine (0.1 μM). Non-specific binding was determined using a high concentration of unlabelled antagonist, DPCPX for rA1R, ZM241385 for the rA2AR and MRS1220 for rA3R.

Experiment [5] deals with T3, hA1R (Homo sapiens, UniProt P30542).
T3 sequence (P30542 1-326): T1 sequence (P30542 1-326)
Briefly: cAMP inhibition in CHO-K1-hA1R cells (forskolin co-stimulation). Conditions: for Range hA1R: range of response as percentage of response to 10 μM forskolin; for cAMP levels, co-stimulation with 1 μM forskolin and agonist (Fig. 1biii): individual repeats and mean.
Protocol: CHO cell lines expressing ARs of interest (including mutants of the hA1R) were routinely cultured in Ham’s F-12 nutrient mix supplemented with 10% foetal bovine serum (FBS), at 37 °C with 5% CO2, in a humidified atmosphere.

The target of experiment [6] is T3, hA1R. Briefly: Radioligand displacement of [3H]-DPCPX, CHO-K1-hA1R membranes. It counts as binding. The following applies: for [3H]DPCPX binding, agonist displacement (Fig. 1bii): individual repeats and mean. Set-up: expressed in transfected cells; [3H]DPCPX binding, agonist displacement (Fig. 1bii): unit not given here. On the procedure: Radioligand displacement assays were conducted using crude membrane preparations (100 μg protein per tube) acquired from homogenisation of CHO-K1-hA1R cells in ice-cold buffer (2 mM MgCl2, 20 mM HEPES, pH 7.4). […] Non-specific binding was determined in the presence of 10 μM DPCPX. Membrane incubations were conducted in Sterilin™ scintillation vials (Thermo Fisher Scientific; Wilmington, Massachusetts, USA) for 60 min at room temperature. Free radioligand was separated from bound radioligand by filtration through Whatman® glass microfiber GF/B 25 mm filters (Sigma-Aldrich). Each filter was then placed in a Sterilin™ scintillation vial and radioactivity determined by: addition of 4 mL of Ultima Gold XR liquid scintillant (PerkinElmer), overnight incubation at room temperature and the retained radioactivity determined using a Beckman Coulter LS 6500 Multi-purpose scintillation counter (Beckman Coulter Inc.; Indiana, USA).
Radioligand displacement curves were fitted to the one-site competition binding equation yielding log(Ki) values.

T2 sequence (P30543 whole entry): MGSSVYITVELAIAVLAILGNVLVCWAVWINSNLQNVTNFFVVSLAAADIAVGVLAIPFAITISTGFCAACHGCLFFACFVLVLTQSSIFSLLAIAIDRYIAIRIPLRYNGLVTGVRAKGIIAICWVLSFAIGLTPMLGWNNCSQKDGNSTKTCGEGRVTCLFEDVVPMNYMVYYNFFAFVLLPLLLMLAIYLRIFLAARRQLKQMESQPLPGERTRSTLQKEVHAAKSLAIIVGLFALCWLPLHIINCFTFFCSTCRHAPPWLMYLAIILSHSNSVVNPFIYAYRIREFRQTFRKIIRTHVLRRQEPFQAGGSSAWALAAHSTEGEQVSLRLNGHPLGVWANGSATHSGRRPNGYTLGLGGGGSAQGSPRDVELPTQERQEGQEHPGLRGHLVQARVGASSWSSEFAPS

Compound `OC[C@H]1O[C@@H](n2cnc3c(N[C@@H]4CCC[C@H]4O)ncnc32)[C@H](O)[C@@H]1O` [HOCPA, (2 R,3 R,4 S,5 R)−2-(6-{[(1 R,2 R)−2-hydroxycyclopentyl]amino}−9H-purin-9-yl)−5-(hydroxymethyl)oxolane-3,4-diol] returned a membrane hyperpolarisation in experiment [1] (HOCPA 300 nM) of 5.3 ± 0.5 mV. Further, in experiment [2], the EC50 is 339 nM, the Emax was -29.8% and the “Bias factor (Δ(τ/KA)) Goa” value turned out to be 3.228. In addition, the EC50 in experiment [3] (half-maximal response, cAMP, read-out: pEC50 rA2AR (converted)) was 2040 nM. Also, the “Range rA2AR” value in experiment [3] (range of response as percentage of response to 10 μM forskolin) is reported as 48.61 ± 6.42%. Besides, the Ki in experiment [4] (displacement of CA200645, read-out: pKi rA2AR (converted)) is 13800 nM. Besides, in experiment [5], the IC50 is 0.832 nM and the “Range hA1R” value is on record as 60.52 ± 1.5%. Further, in experiment [6] (displacement of [3H]-DPCPX, CHO-K1-hA1R, read-out: pKi hA1R (converted)), the Ki is 1550 nM.
For the compound `OC[C@H]1O[C@@H](n2cnc3c(NC4CCCC4)ncnc32)[C@H](O)[C@@H]1O` [CPA, N^6-Cyclopentyladenosine], the membrane hyperpolarisation in experiment [1] (CPA 300 nM in the presence of BnOCPA 300 nM) was 2.75 ± 0.48 mV. Also, the Emax in experiment [2] is -13.7%. For the same compound, the “Bias factor (Δ(τ/KA)) Goa” value in experiment [2] is given as 0.6126. Further, the EC50 in experiment [3] was 2820 nM. Further, the “Range rA2AR” value in experiment [3] is 39.45 ± 3.47%. In experiment [4], this compound yielded a Ki above 100000 nM. For the same compound, the “cAMP levels, co-stimulation with 1 μM forskolin and agonist (Fig. 1biii)” value was 40.1 and 40.118 and 40.1062 and 40.1555 and 40.1419 and 40.1089 and 40.1054 and 40.1072 and 40.1135 and 40.1134 and 40.1344 in experiment [5] (Log [Agonist] -6); 40.4 and 40.3687 and 40.2515 and 40.737 and 40.6042 and 40.2784 and 40.2436 and 40.2615 and 40.3242 and 40.3231 and 40.5303 in experiment [5] (Log [Agonist] -7); 42.9 and 42.7424 and 41.659 and 45.8766 and 44.7904 and 41.911 and 41.5838 and 41.7525 and 42.336 and 42.3262 and 44.1655 in experiment [5] (Log [Agonist] -8); 57.8 and 57.9585 and 52.2853 and 68.2239 and 65.3823 and 53.7555 and 51.8264 and 52.843 and 56.017 and 55.9674 and 63.4546 in experiment [5] (Log [Agonist] -9); 81.2 and 82.0022 and 77.8788 and 85.9249 and 85.1011 and 79.182 and 77.4265 and 78.3979 and 80.8371 and 80.8046 and 84.4497 in experiment [5] (Log [Agonist] -10); 88.4 and 88.5187 and 87.9157 and 89.0024 and 88.907 and 88.1183 and 87.8424 and 87.9978 and 88.3592 and 88.3546 and 88.8294 in experiment [5] (Log [Agonist] -11). Besides, the “cAMP levels, co-stimulation with 1 μM forskolin and agonist (Fig. 1biii)” value in experiment [5] (Log [Agonist] -12) is 89.2835 and 89.2206 and 89.333 and 89.3233 and 89.2419 and 89.2129 and 89.2293 and 89.267 and 89.2665 and 89.3154 and 89.3; in experiment [5] (Log [Agonist] -13), 89.2835 and 89.2206 and 89.333 and 89.3. In addition, in experiment [5], the “Range hA1R” value turned out to be 48.97 ± 0.7%. Further, the “[3H]DPCPX binding, agonist displacement (Fig. 1bii)” value in experiment [6] (Log [Agonist] -4 (printed 100 nM), individual repeat) is 20.2642 and 4.4733 and -15.7273 and -5.192 and 4.0456; in experiment [6] (Log [Agonist] -4 (printed 100 nM), mean), 1.6; in experiment [6] (Log [Agonist] -5 (10 nM [sic]), individual repeat), 11.1387 and 7.285 and -0.8835 and -5.9519 and 7.949; in experiment [6] (Log [Agonist] -5 (10 nM [sic]), mean), 3.9; in experiment [6] (Log [Agonist] -6), 33.4844 and 35.0135 and 37.1916 and 34.6828 and 36.5376; in experiment [6] (Log [Agonist] -6, mean), 35.4. The “[3H]DPCPX binding, agonist displacement (Fig. 1bii)” value in experiment [6] (Log [Agonist] -7 (0.1 nM [sic])) is 68.5034 and 65.597 and 37.2069 and 75.7359 and 85.6552; in experiment [6] (Log [Agonist] -7 (0.1 nM [sic]), mean), 66.5; in experiment [6] (Log [Agonist] -8 (0.01 nM [sic])), 82.5188 and 76.3158 and 97.3862 and 99.1923 and 79.3577; in experiment [6] (Log [Agonist] -8 (0.01 nM [sic]), mean), 87.0; in experiment [6] (Log [Agonist] -9 (0.001 nM [sic])), 135.427 and 110.895 and 123.979 and 110.925 and 95.1958; in experiment [6] (Log [Agonist] -9 (0.001 nM [sic]), mean), 115.3.
